Legend:
NMDA induced convulsions = experiment: inhibition of NMDA induced convulsions in mice (procedure of Chiamulera C et al.); assay type: in vivo; settings: mouse; iv administration; intracerebroventricular injection of NMDA; read-out: ED50 (dose required to protect 50% of the animals from the convulsive action of NMDA)
Experimental: The ability of compounds of the invention to inhibit NMDA included convulsions in the mouse was determined using the procedure of Chiamulera C et al. Psychopharmacology 1990, 102, 551-552. In this test the ability of the compound to inhibit the generalized seizures induced by an intracerebroventricular injection of NMDA in mice was examined at a number of dose levels. […] This expressed as mg/kg is referred to as the ED50 value.

[1] = molecular target: T1, strychnine insensitive glycine binding site located on the NMDA receptor complex (Rattus norvegicus, UniProt P35439); experiment: affinity for strychnine insensitive glycine binding site (procedure of Kishimoto H. et al.); settings: procedure of Kishimoto H. et al. J. Neurochem 1981, 37, 1015-1024
T1 construct: from tissue
Experimental: The potent and selective action of the compounds of the invention at the strychnine- insensitive glycine binding site present on the NMDA receptor complex may be readily determined using conventional test procedures. Thus the ability to bind at the strychnine insensitive glycine binding site was determined using the procedure of Kishimoto H et al. J Neurochem 1981, 37 1015-1024. The selectivity of the action of compounds of the invention for the strychnine insensitive glycine site was confirmed in studies at other ionotropic known excitatory amino acid receptors.
The affinity of the compound of the invention for strychnine insensitvie glycine binding site was determined using the procedure of Kishimoto H. et al J. Neurochem 1981, 37, 1015-1024.

Structure (SMILES)	pKi [1]	ED50 (NMDA induced convulsions) [mg/kg]
O=C(/C=C/c1c(C(=O)O)[nH]c2cc(Cl)cc(Cl)c12)Nc1ccc(F)cc1F [Example 2h, (E) 3-[2-(2,4-Difluorophenylaminocarbonyl)ethenyl]-4,6-dichloroindole-2-carboxylic acid]	8.3	0.3
O=C(/C=C/c1c(C(=O)O)[nH]c2cc(Cl)cc(Cl)c12)Nc1cc([N+](=O)[O-])ccc1O [Example 2i]	8.0	
O=C(/C=C/c1c(C(=O)O)[nH]c2cc(Cl)cc(Cl)c12)Nc1ccccc1O [Example 2e, (E) 3-[2-(2-Hydroxyphenylaminocarbonyl)ethenyl]-4,6-dichloroindole-2-carboxylic acid]	8.4	

Further lines, with some results ahead:

pKi [1]	Structure (SMILES)	ED50 (NMDA induced convulsions) [mg/kg]
8.3	CCOc1ccc(NC(=O)/C=C/c2c(C(=O)O)[nH]c3cc(Cl)cc(Cl)c23)cc1 [Example 2g, (E) 3-[2(4-Ethoxyphenylaminocarbonyl)ethenyl]-4,6-dichloroindole-2-carboxylic acid]	0.1
8.1	COc1ccc(NC(=O)/C=C/c2c(C(=O)O)[nH]c3cc(Cl)cc(Cl)c23)cc1OC [Example 2f, (E) 3-[2-(3,4-Dimethoxyphenylaminocarbonyl)ethenyl]-4,6-dichloroindole-2-carboxylic acid]	0.3

Reference: patent publication US5374649A, “Indole derivatives and pharmaceutical use thereof” (Glaxo S.p.A., priority 1992, dated 1994)
